Data as given in ChEMBL document CHEMBL1275384, “Structure-activity relationships of benzimidazole-based selective inhibitors of the mitogen activated kinase-5 signaling pathway” (2010).

What was measured:
[1] = test system: HCT-15; test: Cytotoxicity against human HCT15 cells at 10 uM assessed as cell growth relative to control; type: functional; conditions: read-out: Activity
[2] = test system: MOLT-4; test: Cytotoxicity against human MOLT4 cells at 10 uM assessed as cell growth relative to control; type: functional; conditions: read-out: Activity
[3] = test system: SF-295; test: Cytotoxicity against human SF295 cells at 10 uM assessed as cell growth relative to control; type: functional; conditions: read-out: Activity
[4] = test system: CCRF-CEM; test: Cytotoxicity against human CCRF-CEM cells at 10 uM assessed as cell growth relative to control; type: functional; conditions: read-out: Activity
[5] = test system: HCC 2998; test: Cytotoxicity against human HCC2998 cells at 10 uM assessed as cell growth relative to control; type: functional; conditions: read-out: Activity
[6] = test system: ACHN; test: Cytotoxicity against human ACHN cells at 10 uM assessed as cell growth relative to control; type: functional; conditions: read-out: Activity
[7] = test system: BT-549; test: Cytotoxicity against human BT549 cells at 10 uM assessed as cell growth relative to control; type: functional; conditions: read-out: Activity
[8] = test system: SR; test: Cytotoxicity against human SR cells at 10 uM assessed as cell growth relative to control; type: functional; conditions: read-out: Activity
[9] = test system: NCI-H226; test: Cytotoxicity against human NCI-H226 cells at 10 uM assessed as cell growth relative to control; type: functional; conditions: read-out: Activity
[10] = test system: UACC-62; test: Cytotoxicity against human UACC62 cells at 10 uM assessed as cell growth relative to control; type: functional; conditions: read-out: Activity
[11] = test system: MDA-MB-468; test: Cytotoxicity against human MDA-MB-468 cells at 10 uM assessed as cell growth relative to control; type: functional; conditions: read-out: Activity
[12] = test system: MDA-MB-231; test: Cytotoxicity against human MDA-MB-231 cells at 10 uM assessed as cell growth relative to control; type: functional; conditions: read-out: Activity
[13] = test system: SW-620; test: Cytotoxicity against human SW620 cells at 10 uM assessed as cell growth relative to control; type: functional; conditions: read-out: Activity
[14] = target: T1, Dual specificity mitogen-activated protein kinase kinase 5 (Homo sapiens) (UniProt Q13163); conditions: HEK293, at 10 µM;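 note: MEK5 activity stimulated by EGF, read out as phospho-ERK5 on Western blot after 1 h treatment, expressed relative to control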
T1 sequence (whole entry): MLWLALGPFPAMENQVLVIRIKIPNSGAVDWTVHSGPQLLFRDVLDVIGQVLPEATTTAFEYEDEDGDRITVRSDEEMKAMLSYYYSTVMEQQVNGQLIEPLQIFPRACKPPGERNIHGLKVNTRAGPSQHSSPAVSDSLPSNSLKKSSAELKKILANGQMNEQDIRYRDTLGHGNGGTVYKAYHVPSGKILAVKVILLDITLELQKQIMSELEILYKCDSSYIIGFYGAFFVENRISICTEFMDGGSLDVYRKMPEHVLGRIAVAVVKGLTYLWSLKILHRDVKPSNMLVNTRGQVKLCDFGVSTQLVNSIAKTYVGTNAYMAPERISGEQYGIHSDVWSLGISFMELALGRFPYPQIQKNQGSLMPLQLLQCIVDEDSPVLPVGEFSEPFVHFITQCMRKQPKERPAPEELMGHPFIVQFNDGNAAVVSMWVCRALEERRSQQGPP
Description: Inhibition of EGF-induced MEK5 activity in HEK293 cells assessed as phosphorylated ERK5 level at 10 uM after 1 hr by Western blotting relative to control

[15] = test system: NCI-H322M; test: Cytotoxicity against human NCI-H322M cells at 10 uM assessed as cell growth relative to control; type: functional; conditions: read-out: Activity
[16] = test system: NCI-H460; test: Cytotoxicity against human NCI-H460 cells at 10 uM assessed as cell growth relative to control; type: functional; conditions: read-out: Activity
[17] = test system: NCI-H522; test: Cytotoxicity against human NCI-H522 cells at 10 uM assessed as cell growth relative to control; type: functional; conditions: read-out: Activity
[18] = test system: HOP-92; test: Cytotoxicity against human HOP92 cells at 10 uM assessed as cell growth relative to control; type: functional; conditions: read-out: Activity
[19] = test system: T47D; test: Cytotoxicity against human T47D cells at 10 uM assessed as cell growth relative to control; type: functional; conditions: read-out: Activity
[20] = test system: SK-OV-3; test: Cytotoxicity against human SKOV3 cells at 10 uM assessed as cell growth relative to control; type: functional; conditions: read-out: Activity
[21] = Cytotoxicity against human […] cells at 10 uM assessed as cell growth relative to control; type: functional; conditions: read-out: Activity
[22] = test system: U-251; test: Cytotoxicity against human U251 cells at 10 uM assessed as cell growth relative to control; type: functional; conditions: read-out: Activity
[23] = test system: NCI-H23; test: Cytotoxicity against human NCI-H23 cells at 10 uM assessed as cell growth relative to control; type: functional; conditions: read-out: Activity
[24] = test system: MDA-MB-435; test: Cytotoxicity against human MDA-MB-435 cells at 10 uM assessed as cell growth relative to control; type: functional; conditions: read-out: Activity
[25] = test system: SK-MEL-28; test: Cytotoxicity against human SK-MEL-28 cells at 10 uM assessed as cell growth relative to control; type: functional; conditions: read-out: Activity
[26] = test system: 786-0; test: Cytotoxicity against human 786-0 cells at 10 uM assessed as cell growth relative to control; type: functional; conditions: read-out: Activity
[27] = Cytotoxicity against human Hs 578T cells at 10 uM assessed as cell growth relative to control; type: functional; conditions: read-out: Activity
[28] = test system: M14; test: Cytotoxicity against human M14 cells at 10 uM assessed as cell growth relative to control; type: functional; conditions: read-out: Activity
[29] = test system: RXF 393; test: Cytotoxicity against human RXF393 cells at 10 uM assessed as cell growth relative to control; type: functional; conditions: read-out: Activity
[30] = test system: NCI/ADR-RES; test: Cytotoxicity against human NCI/ADR-RES cells at 10 uM assessed as cell growth relative to control; type: functional; conditions: read-out: Activity
[31] = test system: OVCAR-4; test: Cytotoxicity against human OVCAR4 cells at 10 uM assessed as cell growth relative to control; type: functional; conditions: read-out: Activity
[32] = test system: OVCAR-5; test: Cytotoxicity against human OVCAR5 cells at 10 uM assessed as cell growth relative to control; type: functional; conditions: read-out: Activity
[33] = test system: A498; test: Cytotoxicity against human A498 cells at 10 uM assessed as cell growth relative to control; type: functional; conditions: read-out: Activity
[34] = test system: COLO 205; test: Cytotoxicity against human COLO205 cells at 10 uM assessed as cell growth relative to control; type: functional; conditions: read-out: Activity
[35] = test system: LOX IMVI; test: Cytotoxicity against human LOXIMVI cells at 10 uM assessed as cell growth relative to control; type: functional; conditions: read-out: Activity
[36] = test system: HOP-62; test: Cytotoxicity against human HOP62 cells at 10 uM assessed as cell growth relative to control; type: functional; conditions: read-out: Activity
[37] = test system: Malme-3M; test: Cytotoxicity against human MALME-3M cells at 10 uM assessed as cell growth relative to control; type: functional; conditions: read-out: Activity
[38] = test system: TK-10; test: Cytotoxicity against human TK10 cells at 10 uM assessed as cell growth relative to control; type: functional; conditions: read-out: Activity
[39] = test system: SN12C; test: Cytotoxicity against human SN12C cells at 10 uM assessed as cell growth relative to control; type: functional; conditions: read-out: Activity
[40] = test system: SK-MEL-5; test: Cytotoxicity against human SK-MEL-5 cells at 10 uM assessed as cell growth relative to control; type: functional; conditions: read-out: Activity
[41] = test system: IGROV-1; test: Cytotoxicity against human IGROV1 cells at 10 uM assessed as cell growth relative to control; type: functional; conditions: read-out: Activity
[42] = test system: OVCAR-8; test: Cytotoxicity against human OVCAR8 cells at 10 uM assessed as cell growth relative to control; type: functional; conditions: read-out: Activity
[43] = test system: EKVX; test: Cytotoxicity against human EKVX cells at 10 uM assessed as cell growth relative to control; type: functional; conditions: read-out: Activity
[44] = test system: SF-539; test: Cytotoxicity against human SF539 cells at 10 uM assessed as cell growth relative to control; type: functional; conditions: read-out: Activity
[45] = test system: HT-29; test: Cytotoxicity against human HT-29 cells at 10 uM assessed as cell growth relative to control; type: functional; conditions: read-out: Activity

COc1cc(NCc2ccccc2)c2ncn(C(C)C)c2c1
growth at 10 µM [1]: 97.9%
growth at 10 µM [2]: 78.7%
growth at 10 µM [3]: 138%
growth at 10 µM [4]: 93.9%
growth at 10 µM [5]: 105%
growth at 10 µM [6]: 106%
growth at 10 µM [7]: 55.6%
growth at 10 µM [8]: 51.7%
growth at 10 µM [9]: 97.1%
growth at 10 µM [10]: 97.3%
growth at 10 µM [11]: 36.5%
growth at 10 µM [12]: 111%
growth at 10 µM [13]: 146%
inhibition [14]: 85%
growth at 10 µM [15]: 115%
growth at 10 µM [16]: 107%
growth at 10 µM [17]: 87%
growth at 10 µM [18]: 64.5%
growth at 10 µM [19]: 80.1%
growth at 10 µM [20]: 110%
growth at 10 µM [21]: 71.5%
growth at 10 µM [22]: 103%
growth at 10 µM [23]: 91.1%
growth at 10 µM [24]: 122%
growth at 10 µM [25]: 125%
growth at 10 µM [26]: 96.5%
growth at 10 µM [27]: 174%
growth at 10 µM [28]: 108%
growth at 10 µM [29]: 91.2%
growth at 10 µM [30]: 96.7%
growth at 10 µM [31]: 50.6%
growth at 10 µM [32]: 97.2%
growth at 10 µM [33]: 106%
growth at 10 µM [34]: 118%
growth at 10 µM [35]: 115%
growth at 10 µM [36]: 101%
growth at 10 µM [37]: 49.2%
growth at 10 µM [38]: 136%
growth at 10 µM [39]: 104%
growth at 10 µM [40]: 122%
growth at 10 µM [41]: 92.4%
growth at 10 µM [42]: 98.7%
growth at 10 µM [43]: 93.9%
growth at 10 µM [44]: 96.2%
growth at 10 µM [45]: 109%

COCCCOc1cc(NCc2ccccc2)c2ncn(C(C)C)c2c1
growth at 10 µM [1]: 110%
growth at 10 µM [2]: 88.2%
growth at 10 µM [3]: 97.4%
growth at 10 µM [4]: 86.8%
growth at 10 µM [5]: 91.7%
growth at 10 µM [6]: 95.3%
growth at 10 µM [7]: 90.1%
growth at 10 µM [8]: 103%
growth at 10 µM [9]: 91.6%
growth at 10 µM [10]: 91.9%
growth at 10 µM [11]: 104%
growth at 10 µM [12]: 102%
growth at 10 µM [13]: 101%
inhibition [14]: 51%
growth at 10 µM [15]: 104%
growth at 10 µM [16]: 85.2%
growth at 10 µM [17]: 127%
growth at 10 µM [18]: 90.9%
growth at 10 µM [19]: 91.9%
growth at 10 µM [20]: 101%
growth at 10 µM [21]: 89.2%
growth at 10 µM [22]: 95.6%
growth at 10 µM [23]: 109%
growth at 10 µM [24]: 110%
growth at 10 µM [25]: 115%
growth at 10 µM [26]: 95.7%
growth at 10 µM [27]: 84.4%
growth at 10 µM [28]: 104%
growth at 10 µM [29]: 94.3%
growth at 10 µM [30]: 85.3%
growth at 10 µM [31]: 87.8%
growth at 10 µM [32]: 91.5%
growth at 10 µM [33]: 83.5%
growth at 10 µM [34]: 100%
growth at 10 µM [35]: 94.5%
growth at 10 µM [36]: 85.7%
growth at 10 µM [37]: 113%
growth at 10 µM [38]: 109%
growth at 10 µM [39]: 90.8%
growth at 10 µM [40]: 95.8%
growth at 10 µM [41]: 90.1%
growth at 10 µM [42]: 99.3%
growth at 10 µM [43]: 95.4%
growth at 10 µM [44]: 93.5%
growth at 10 µM [45]: 109%
